From patent publication US5783689A, “Antibacterial and antifungal nucleosides” (University of Notre Dame, priority 1996, dated 1998)
Values after ≈ are worked out from the molar mass of the structure shown. Like-named read-outs stand apart in the source and are kept apart here. Where a SMILES comes first, the peptide text is derived from it. [ ]: non-standard residue; d: D form. The star is where a group is joined. X1 = O=c1[nH]c(=O)n([C@@H]2O[C@H](CO*)[C@@H](O)[C@H]2O)cc1F; Orn(N5-OH,N5-Ac) = CC(=O)N(O)CCC[C@H](N)C(=O)O

Columns and labels:
Type in all cases: cell-based
[1] = system: E. Coli EC14; assay: MIC by agar dilution method; details: Escherichia coli, read-out: Minimum Inhibitory Concentration
Source text: (§1) The following Table 3 lists the minimum inhibitory concentrations obtained by the agar dilution method against Gram-positive and Gram-negative organisms with 5'-O-(valinyl)-5-fluorouridine and comparators ampicillin and 5-FC.

[2] = system: Klebsiella X26; assay: MIC by agar dilution method; details: read-out: Minimum Inhibitory Concentration
Source text: as §1

[3] = system: Serratia X99; assay: MIC by agar dilution method; details: read-out: Minimum Inhibitory Concentration
Source text: as §1

[4] = system: Proteus stu PR33; assay: MIC by agar dilution method; details: read-out: Minimum Inhibitory Concentration
Source text: as §1

[5] = system: Morganella morganii PR15; assay: MIC by agar dilution method; details: read-out: Minimum Inhibitory Concentration
Source text: as §1

[6] = system: Enterococcus D X66; assay: MIC by agar dilution method
Source text: as §1

[7] = system: Staphylococcus epidermis 70; assay: MIC by agar dilution method; details: read-out: Minimum Inhibitory Concentration
Source text: as §1

[8] = system: E. Coli TEM; assay: MIC by agar dilution method; details: Escherichia coli, read-out: Minimum Inhibitory Concentration
Source text: as §1

[9] = system: Enterobacter aerogenes EB17; assay: MIC by agar dilution method; details: Klebsiella aerogenes, read-out: Minimum Inhibitory Concentration
Source text: as §1

[10] = system: Enterobacter cloacae EB5; assay: MIC by agar dilution method; details: read-out: Minimum Inhibitory Concentration
Source text: as §1

[11] = system: Serratia SE3; assay: MIC by agar dilution method; details: read-out: Minimum Inhibitory Concentration
Source text: as §1

[12] = system: Enterobacter aerogenes C32; assay: MIC by agar dilution method; details: Klebsiella aerogenes, read-out: Minimum Inhibitory Concentration
Source text: as §1

[13] = system: Staphylococcus aureus X 1.1; assay: MIC by agar dilution method; details: X1.1, read-out: Minimum Inhibitory Concentration
Source text: as §1

[14] = system: Staphylococcus aureus V 41; assay: MIC by agar dilution method; details: V41, read-out: Minimum Inhibitory Concentration
Source text: as §1

[15] = system: Staphylococcus epidermis 222; assay: MIC by agar dilution method; details: read-out: Minimum Inhibitory Concentration
Source text: as §1

[16] = system: Enterococcus D 2041; assay: MIC by agar dilution method; details: D2041, read-out: Minimum Inhibitory Concentration
Source text: as §1

[17] = system: Shigella sonnei N9; assay: MIC by agar dilution method; details: N9, read-out: Minimum Inhibitory Concentration
Source text: as §1

[18] = system: Salmonella X514; assay: MIC by agar dilution method; details: read-out: Minimum Inhibitory Concentration
Source text: as §1

[19] = system: Proteus rett. C24; assay: MIC by agar dilution method; details: read-out: Minimum Inhibitory Concentration
Source text: as §1

[20] = system: Pseudomonas PS19; assay: MIC by agar dilution method
Source text: as §1

[21] = system: Staphylococcus aureus S13E; assay: MIC by agar dilution method; details: read-out: Minimum Inhibitory Concentration
Source text: as §1

[22] = system: Staphylococcus aureus X 400; assay: MIC by agar dilution method
Source text: as §1

[23] = system: Salmonella 1335; assay: MIC by agar dilution method; details: read-out: Minimum Inhibitory Concentration
Source text: as §1

[24] = system: Candida albicans; assay: in vitro test against Candida albicans, zone of inhibition, Lee's medium; details: 37° C.
Source text: The test compound of Table 3,5'-O-(valinyl)-5-fluorouridine, was coupled to the triornithyl peptide represented by the formula 2 wherein p is 3 by following the reaction Scheme 1 above and substituting valine for glycine to provide the tetrapeptide of the invention. […] Lee, K. L.; Buckley, H. R.; Campbell, C. C., Saubouraudia, 1975, 13, 148. The tetrapeptide gave a 35 mm diameter zone of inhibition at a concentration of the compound of 25 nmol. while at a concentration of 5 nmol. the zone of inhibition was 26 mm.

[25] = system: Streptococcus A C203; assay: MIC by agar dilution method; parameters: key: NG: no growth
Source text: as §1

[26] = system: Streptococcus pn PARK; assay: MIC by agar dilution method; details: read-out: Minimum Inhibitory Concentration
Source text: as §1

[27] = system: Gram-positive bacteria including the methicillin resistant staphylococci; assay: in vitro growth inhibition of Gram-positive bacteria including methicillin resistant staphylococci
Source text: as §1

[28] = system: Gram-negative microorganisms; assay: activity against Gram-negative microorganisms; details: compared with Gram-positive bacteria
Source text: as §1

[29] = Pseudomonas PS19, agar dilution, read-out: Minimum Inhibitory Concentration
[30] = DX66, Enterococcus D X66, agar dilution, read-out: Minimum Inhibitory Concentration
[31] = X400, Staphylococcus aureus X 400, agar dilution, read-out: Minimum Inhibitory Concentration

| Structure (SMILES) | MIC ([1]; E. Coli EC14, agar dilution) [µg/mL] | MIC [2] [µg/mL] | MIC [3] [µg/mL] | MIC [4] [µg/mL] | MIC [5] [µg/mL] | MIC [7] [µg/mL] | MIC [8] [µg/mL] | MIC [9] [µg/mL] | MIC [10] [µg/mL] | MIC [11] [µg/mL] | MIC [12] [µg/mL] | MIC [13] [µg/mL] | MIC [14] [µg/mL] | MIC [15] [µg/mL] | MIC [16] [µg/mL] | MIC [17] [µg/mL] | MIC [18] [µg/mL] | MIC [19] [µg/mL] | MIC [20, 29] [µg/mL] | MIC [21] [µg/mL] | also measured |
| --- | --- | --- | --- | --- | --- | --- | --- | --- | --- | --- | --- | --- | --- | --- | --- | --- | --- | --- | --- | --- | --- |
| CC1(C)S[C@@H]2[C@H](NC(=O)[C@H](N)c3ccccc3)C(=O)N2[C@H]1C(=O)O [Ampicillin] | 0.06 (≈ 0.172 µM) | 0.008 (≈ 0.0229 µM) | 0.25 (≈ 0.715 µM) | 0.06 (≈ 0.172 µM) | 1 (≈ 2.86 µM) | 8 (≈ 22.9 µM) | 0.03 (≈ 0.0859 µM) | 0.06 (≈ 0.172 µM) | 0.25 (≈ 0.715 µM) | 0.5 (≈ 1.43 µM) | 0.5 (≈ 1.43 µM) | 2 (≈ 5.72 µM) | 4 (≈ 11.4 µM) | 2 (≈ 5.72 µM) | 1 (≈ 2.86 µM) | 0.6 (≈ 1.72 µM) | 0.06 (≈ 0.172 µM) | 0.06 (≈ 0.172 µM) | 32 (≈ 91.6 µM) | 128 (≈ 366 µM) | MIC ([6]; Enterococcus, DX66, read-out: Minimum Inhibitory Concentration): 128 µg/mL (≈ 366 µM); MIC ([22]; Staphylococcus aureus, X400, read-out: Minimum Inhibitory Concentration): 128 µg/mL (≈ 366 µM); MIC [23]: 0.125 µg/mL (≈ 0.358 µM) |
| Nc1nc(=O)n([C@@H]2O[C@H](CO)[C@@H](O)[C@H]2O)cc1F [Example 5-FC, 5-fluorocytidine] |  |  |  |  |  | 16 (≈ 61.3 µM) |  |  |  |  |  | 8 (≈ 30.6 µM) | 8 (≈ 30.6 µM) | 16 (≈ 61.3 µM) | 4 (≈ 15.3 µM) |  |  |  |  | 2 (≈ 7.66 µM) | MIC [1]: > 128 µg/mL; MIC [6, 30]: 0.25 µg/mL (≈ 0.957 µM); MIC ([20]; Pseudomonas, PS19, read-out: Minimum Inhibitory Concentration): > 128 µg/mL; MIC [22, 31]: 8 µg/mL (≈ 30.6 µM) |
| CC(=O)N(O)CCC[C@H](NC(=O)[C@H](CCCN(O)C(C)=O)NC(=O)[C@@H](N)CCCN(O)C(C)=O)C(=O)N[C@H](C(=O)OC[C@H]1O[C@@H](n2cc(F)c(=O)[nH]c2=O)[C@H](O)[C@@H]1O)C(C)C [tetrapeptide] (H-[Orn(N5-OH,N5-Ac)][Orn(N5-OH,N5-Ac)][Orn(N5-OH,N5-Ac)]V-X1) |  |  |  |  |  |  |  |  |  |  |  |  |  |  |  |  |  |  |  |  | diameter zone of inhibition ([24]; 5 nmol): 26 mm; diameter zone of inhibition ([24]; 25 nmol): 35 mm; activity against Candida albicans (in words) ([24]; in vitro): exhibited activity against Candida albicans |
| CC(C)[C@H](N)C(=O)OC[C@H]1O[C@@H](n2cc(F)c(=O)[nH]c2=O)[C@H](O)[C@@H]1O [Test Compd, 5'-O-(L-valinyl)-5-fluorouridine] | 128 (≈ 354 µM) | 32 (≈ 88.6 µM) | 16 (≈ 44.3 µM) | 32 (≈ 88.6 µM) | 8 (≈ 22.1 µM) | 0.03 (≈ 0.083 µM) | 16 (≈ 44.3 µM) | 64 (≈ 177 µM) | 32 (≈ 88.6 µM) | 16 (≈ 44.3 µM) | 64 (≈ 177 µM) | 0.5 (≈ 1.38 µM) | 0.25 (≈ 0.692 µM) | 1 (≈ 2.77 µM) | 2 (≈ 5.54 µM) | 64 (≈ 177 µM) | 32 (≈ 88.6 µM) | 16 (≈ 44.3 µM) | 128 (≈ 354 µM) | 0.125 (≈ 0.346 µM) | Minimum Inhibitory Concentration [25]: NG; MIC [26]: 128 µg/mL (≈ 354 µM); MIC [6, 30]: 32 µg/mL (≈ 88.6 µM); MIC [22, 31]: 0.25 µg/mL (≈ 0.692 µM); MIC [23]: 32 µg/mL (≈ 88.6 µM); growth inhibition of Gram-positive bacteria / methicillin-resistant staphylococcus (in words) [27]: inhibited the in vitro growth of Gram-positive bacteria including the methicillin resistant staphylococci; growth inhibition of Gram-positive bacteria / methicillin-resistant staphylococcus (in words) ([27]; listed as 5'-O-(valinyl)-5-fluorouridine): inhibits the growth of methicillin-resistant staphylococcus; activity against Gram-negative microorganisms (in words) [28]: also active against Gram-negative microorganisms but to a lesser degree |
